Assay results reported in BindingDB's records for doi:10.7270/Q23T9FMP (The Scripps Research Institute Molecular Screening Center, 2007).

The molecules below were run against Steroidogenic factor 1 (Homo sapiens, UniProt Q13285) (assay: activation of SF-1 LBD reporter – cell-based, CHO-K1, Gal4-SF-1 LBD, luciferase luminescence, dose response (AID 692)). Conditions: not given.
Sequence of Steroidogenic factor 1 (Q13285 whole entry, the tested form may be a part): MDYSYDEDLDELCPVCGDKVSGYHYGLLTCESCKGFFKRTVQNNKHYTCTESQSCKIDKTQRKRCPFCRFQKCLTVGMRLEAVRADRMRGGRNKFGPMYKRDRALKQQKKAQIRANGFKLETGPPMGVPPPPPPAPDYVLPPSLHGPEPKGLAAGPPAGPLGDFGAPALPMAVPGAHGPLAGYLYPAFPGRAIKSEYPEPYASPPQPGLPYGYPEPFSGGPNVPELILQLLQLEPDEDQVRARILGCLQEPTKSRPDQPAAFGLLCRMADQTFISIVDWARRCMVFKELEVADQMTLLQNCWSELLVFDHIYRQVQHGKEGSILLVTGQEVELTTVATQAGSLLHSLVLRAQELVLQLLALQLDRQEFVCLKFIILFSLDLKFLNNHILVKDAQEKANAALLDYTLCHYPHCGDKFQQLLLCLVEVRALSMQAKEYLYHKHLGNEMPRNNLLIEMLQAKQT

Row | SMILES | EC50
1 | COc1ccc(C(=O)CC=Nc2cccc(C)n2)cc1OC | 401 nM
2 | CC(=O)c1c(C)[nH]c(C(=O)Nc2ccc3c(c2)OCCO3)c1C | 466 nM
3 | COc1ccc2c(c1OC)C(=O)N1c3ccccc3SC21 (stereo not given) [1,2-dimethoxy-4bH-isoindolo[1,2-b][1,3]benzothiazol-11-one] | 827 nM
4 | O=C(CSc1ccccn1)c1ccc2c(c1)OCO2 [1-(1,3-benzodioxol-5-yl)-2-(2-pyridinylthio)ethanone] | 1160 nM
5 | O=C(COc1ncnc2ccccc12)c1ccc2c(c1)OCCO2 [1-(2,3-dihydro-1,4-benzodioxin-6-yl)-2-(4-quinazolinyloxy)ethanone] | 396 nM
6 | CCCn1c(C)cc(C(=O)COc2ncnc3sccc23)c1C [1-(2,5-dimethyl-1-propyl-3-pyrrolyl)-2-(4-thieno[2,3-d]pyrimidinyloxy)ethanone] | 585 nM
7 | N#CCc1ccc(NC(=O)Nc2cccc(Cl)c2)cc1 [1-(3-chlorophenyl)-3-[4-(cyanomethyl)phenyl]urea] | 2430 nM
8 | CN(C)c1ccc(NC(=O)Nc2cccc(Cl)c2)cc1 [1-(3-chlorophenyl)-3-[4-(dimethylamino)phenyl]urea] | 386 nM
9 | Clc1ccc(-n2ncc3c(NCc4ccccn4)ncnc32)cc1 [1-(4-chlorophenyl)-N-(2-pyridinylmethyl)-4-pyrazolo[3,4-d]pyrimidinamine] | 2800 nM
10 | COc1ccc2nc(Nc3nc(C)c(C(C)=O)s3)sc2c1 [1-[2-[(6-methoxy-1,3-benzothiazol-2-yl)amino]-4-methyl-1,3-thiazol-5-yl]ethanone] | 572 nM
11 | CCOC(=O)C1CCN(S(=O)(=O)c2ccc(-c3nc4ccccc4s3)s2)CC1 [1-[[5-(1,3-benzothiazol-2-yl)-2-thienyl]sulfonyl]isonipecotic acid ethyl ester] | 2170 nM
12 | COc1ccc2c(c1)CCc1c(C(=O)N3CCCCCC3)noc1-2 [1-azepanyl-(7-methoxy-4,5-dihydrobenzo[g][1,2]benzoxazol-3-yl)methanone] | 1320 nM
13 | COc1ccc(CNC(=O)NC2CCCCC2)cc1 [1-cyclohexyl-3-[(4-methoxyphenyl)methyl]urea] | > 11000 nM
14 | COc1ccc(-c2cc(C(=O)N3CCCCC3)no2)cc1OC [1-{[5-(3,4-dimethoxyphenyl)isoxazol-3-yl]carbonyl}piperidine] | 3840 nM
15 | Cc1cc(C(=O)OCC(=O)N2CCc3ccccc32)c(C)o1 [2,5-dimethyl-3-furancarboxylic acid [2-(2,3-dihydroindol-1-yl)-2-oxoethyl] ester] | 1240 nM
16 | CC(C)(C)n1ncc2c(=O)n(CC(=O)NCc3ccccc3Cl)cnc21 [2-(1-tert-butyl-4-keto-pyrazolo[3,4-d]pyrimidin-5-yl)-N-(2-chlorobenzyl)acetamide] | 138 nM
17 | COc1cc(N2CCCC2)c(OC)cc1C=c1sc2nc3ccccc3n2c1=O [2-(2,5-dimethoxy-4-pyrrolidino-benzylidene)thiazolo[3,2-a]benzimidazol-1-one] | 14600 nM

Row | SMILES | EC50
18 | CCn1c(SCC(=O)c2cccs2)nnc1-c1ccco1 [2-(4-Ethyl-5-furan-2-yl-4H-[1,2,4]triazol-3-ylsulfanyl)-1-thiophen-2-yl-ethanone] | 9840 nM
19 | CN(C)c1oc(-c2ccc(OCc3ccccc3)cc2)nc1C#N [2-(4-benzoxyphenyl)-5-(dimethylamino)oxazole-4-carbonitrile] | 5210 nM
20 | CCOc1ccc(N2C(=O)c3ccccc3C2O)cc1 (stereo not given) [2-(4-ethoxyphenyl)-3-hydroxy-3H-isoindol-1-one] | 1250 nM
21 | O=C(CSc1nc2ccccc2o1)Nc1nc2ccccc2s1 [2-(Benzooxazol-2-ylsulfanyl)-N-benzothiazol-2-yl-acetamide] | > 99000 nM
22 | C=CCn1c(C)cc(C(=O)CSc2nc(O)c3ccccc3n2)c1C [2-[2-(2,5-dimethyl-1-prop-2-enyl-pyrrol-3-yl)-2-oxidanylidene-ethyl]sulfanyl-1H-quinazolin-4-one] | 410 nM
23 | OCCOCCNc1ncnc2c1cnn2-c1ccc(Cl)cc1 [2-[2-[[1-(4-chlorophenyl)-4-pyrazolo[3,4-d]pyrimidinyl]amino]ethoxy]ethanol] | 434 nM
24 | CCOC(=O)CSc1nc2ccccc2c(=O)n1NC(=O)c1ccccc1 [2-[(3-benzamido-4-keto-quinazolin-2-yl)thio]acetic acid ethyl ester] | 1360 nM
25 | CCc1nnc(NC(=O)CSc2nc3c(cc2C#N)CCC3)s1 [2-[(3-cyano-1-pyrindan-2-yl)thio]-N-(5-ethyl-1,3,4-thiadiazol-2-yl)acetamide] | 1210 nM
26 | CCOC(=O)CSc1nc(-c2ccncc2)ccc1C#N [2-[(3-cyano-6-pyridin-4-yl-2-pyridinyl)thio]acetic acid ethyl ester] | 1620 nM
27 | Cc1csc2nc(CSc3nc4ccccc4o3)cn12 [2-[(3-methyl-6-imidazo[2,1-b]thiazolyl)methylthio]-1,3-benzoxazole] | > 3670 nM
28 | Nn1c(SCC(=O)Nc2ccc(F)cc2F)nnc1-c1cccnc1 [2-[(4-amino-5-pyridin-3-yl-1,2,4-triazol-3-yl)sulfanyl]-N-(2,4-difluorophenyl)acetamide] | > 11000 nM
29 | CCc1nnc(NC(=O)CSc2nc(C)c3c(c2C#N)CCCC3)s1 [2-[(4-cyano-1-methyl-5,6,7,8-tetrahydroisoquinolin-3-yl)sulfanyl]-N-(5-ethyl-1,3,4-thiadiazol-2-yl)acetamide] | 1690 nM
30 | O=C1CCCC(=O)C1=CNc1ccc(O)cc1 [2-[(4-hydroxyanilino)methylidene]cyclohexane-1,3-dione] | 3760 nM
31 | CCOC(=O)CSc1nc(-c2ccc3c(c2)OCO3)ccc1C#N [2-[[6-(1,3-benzodioxol-5-yl)-3-cyano-2-pyridinyl]thio]acetic acid ethyl ester] | > 3670 nM
32 | Cc1nc2sc(-c3ccccc3)cc2c(=O)n1-n1cccc1 [2-methyl-6-phenyl-3-(1-pyrrolyl)-4-thieno[2,3-d]pyrimidinone] | 477 nM
33 | Cc1ccc(C(=O)Nc2nnc(-c3cccs3)s2)cc1C [3,4-dimethyl-N-(5-thiophen-2-yl-1,3,4-thiadiazol-2-yl)benzamide] | 989 nM

Second part, the molecule after the results:

Row | EC50 | SMILES
34 | 1800 nM | Cc1ccc(-n2c(C)cc(C(=O)COC(=O)c3c(C)noc3C)c2C)cc1 [3,5-dimethyl-4-isoxazolecarboxylic acid [2-[2,5-dimethyl-1-(4-methylphenyl)-3-pyrrolyl]-2-oxoethyl] ester]
35 | 31900 nM | COc1cc(C2c3c(c(O)n(-c4ccccc4)c3O)ON2c2ccccc2)ccc1O (stereo not given) [3-(3-methoxy-4-oxidanyl-phenyl)-2,5-diphenyl-3a,6a-dihydro-3H-pyrrolo[3,4-d][1,2]oxazole-4,6-dione]
36 | 403 nM | COc1ccc2nc3sc(C(=O)NCc4cccs4)c(N)c3cc2c1 [3-Amino-6-methoxy-thieno[2,3-b]quinoline-2-carboxylic acid (thiophen-2-ylmethyl)-amide]
37 | > 3670 nM | O=c1c2ccccc2nnn1CSc1nnc(COc2ccc(Cl)cc2)n1Cc1ccco1 [3-[[5-[(4-chloranylphenoxy)methyl]-4-(furan-2-ylmethyl)-1,2,4-triazol-3-yl]sulfanylmethyl]-1,2,3-benzotriazin-4-one]
38 | > 1220 nM | COc1cccc(C(=O)Nc2cccc(-c3nnc(-c4ccccc4)o3)c2)c1 [3-methoxy-N-[3-(5-phenyl-1,3,4-oxadiazol-2-yl)phenyl]benzamide]
39 | 825 nM | COc1ccc(-c2nc3c(Br)c(N)c(Br)cc3o2)cc1 [4,6-bis(bromanyl)-2-(4-methoxyphenyl)-1,3-benzoxazol-5-amine]
40 | > 11000 nM | c1ccc2nc3c(nc2c1)c1ccccc1n3CCN1CCOCC1 [4-(2-indolo[3,2-b]quinoxalin-6-ylethyl)morpholine]
41 | 1840 nM | COc1ccc(CNc2ccc(C(=O)O)cc2)cc1 [4-(p-anisylamino)benzoic acid]
42 | 2490 nM | CCCOC(=O)c1ccc(NC(=O)C2CCCO2)cc1 (stereo not given) [4-(tetrahydrofuran-2-carbonylamino)benzoic acid propyl ester]
43 | 6650 nM | COc1cccc2c(O)c(C(=O)NCc3cccs3)cnc12 [4-Hydroxy-8-methoxy-quinoline-3-carboxylic acid (thiophen-2-ylmethyl)-amide]
44 | 2270 nM | Cc1cccnc1Nc1nc(-c2ccc(O)cc2O)cs1 [4-[2-(3-Methyl-pyridin-2-ylamino)-thiazol-4-yl]-benzene-1,3-diol]
45 | > 11000 nM | CC(C)(CC(=O)O)Cc1nc(-c2ccc(Cl)cc2)no1 [4-[3-(4-chlorophenyl)-1,2,4-oxadiazol-5-yl]-3,3-dimethyl-butanoic acid]
46 | > 1220 nM | CCOC(=O)N1CCN(S(=O)(=O)c2ccc(C(=O)Nc3sc4c(c3C#N)CCC4)cc2)CC1 [4-[4-[(3-cyano-5,6-dihydro-4H-cyclopenta[b]thiophen-2-yl)carbamoyl]phenyl]sulfonylpiperazine-1-carboxylic acid ethyl ester]
47 | 2710 nM | COC(=O)c1ccc(C(=O)C(C#N)c2nc3ccccc3s2)cc1 (stereo not given) [4-[(2Z)-2-(3H-1,3-benzothiazol-2-ylidene)-2-cyano-1-oxoethyl]benzoic acid methyl ester]
48 | 168 nM | Cc1ccc(C(=O)Nc2ncc(Cc3ccccc3)s2)o1 [5-Methyl-furan-2-carboxylic acid (5-benzyl-thiazol-2-yl)-amide]
49 | 414 nM | Cc1ccc(C(=O)Nc2ncc(Cc3ccc(F)cc3)s2)o1 [5-Methyl-furan-2-carboxylic acid [5-(4-fluoro-benzyl)-thiazol-2-yl]-amide]
50 | 2670 nM | Nc1c(C(=O)NCc2ccco2)nnn1-c1ccccc1 [5-amino-N-(2-furanylmethyl)-1-phenyl-4-triazolecarboxamide]

Same assay, conditions: inactive by the depositor's call

Row | SMILES | EC50
51 | O=C(Cc1ccccc1)n1nc(-c2ccccc2)nc1NCc1ccco1 [1-[5-(2-furanylmethylamino)-3-phenyl-1,2,4-triazol-1-yl]-2-phenylethanone] | 11300 nM
52 | Fc1cnc(N2CCOCC2)nc1N1CCc2ccccc21 [1-[5-fluoro-2-(4-morpholinyl)-4-pyrimidinyl]indoline] | 13700 nM
53 | Cc1cccc(-n2ccnc2SCC(=O)Nc2nccs2)c1 [2-[1-(3-methylphenyl)imidazol-2-yl]sulfanyl-N-(1,3-thiazol-2-yl)acetamide] | 10900 nM
54 | O=C(CNc1ccccc1)Nc1ccc(F)cc1 [2-anilino-N-(4-fluorophenyl)acetamide] | 11400 nM
55 | O=C(Nc1nccs1)c1ccc(COc2ccc(F)cc2)o1 [5-[(4-fluoranylphenoxy)methyl]-N-(1,3-thiazol-2-yl)furan-2-carboxamide] | 11400 nM
